Literature values in article PMC3689924 (Pharmacology, 2012).

Settings: cited from earlier work

Structure (SMILES) | increase in AUC with increasing dose
COC(=O)c1cnc2n1CCc1ccccc1C2=C1CCN(CCc2ccc(OCc3ccc4ccccc4n3)cc2)CC1 [laniquidar] | greater than proportional increases in AUC
O[C@@H](COc1cccc2ncccc12)CN1CCN([C@@H]2c3ccccc3[C@@H]3[C@H](c4ccccc42)C3(F)F)CC1 [zosuquidar] | greater than proportional increases in AUC
